# Data reported in US20160282364A1, “ASSAY FOR INSULIN-DEGRADING ENZYME (IDE) INHIBITORS” (PRESIDENT AND FELLOWS OF HARVARD COLLEGE, priority 2013, published 2016).
# Legend:
# lean mice = assay: Basal blood glucose and hormone levels without nutrient challenge; assay type: in vivo, mouse; details: 80 mg/kg, no glucose challenge, vs controls
# Experimental: Glucose tolerance tests GTT and blood glucose measurements. Prior to a glucose challenge, the animals were fasted for 14 h (8 pm to 10 am, during the dark cycle) while individually housed in a clean cage with inedible wood-chip as a floor substrate, cotton bedding and a red plastic hut. Inhibitor, vehicle or control compounds were administered by a single intraperitoneal (i.p.) injection 30 min prior to the glucose challenge. Dextrose was formulated in sterile saline (3 g in 10 mL total), and the dose was adjusted by fasted body weight. For oGTT, 3.0 g/kg dextrose was administered by gavage at a dose of 10 mL/kg, and for ipGTT, 1.5 g/kg dextrose injected at a dose of 5 mL/kg. Blood glucose was measured using AccuCheck® meters (Aviva) from blood droplets obtained from a small nick at the tip of the tail, at timepoints −45, 0, 15, 30, 45, 60, 90 and 120 min with reference to the time of glucose injection. The area of the blood glucose response profile curve corresponding to each animal was calculated by the trapezoid method^17, using as reference each individual baseline blood glucose measurement prior to glucose administration (t=0). […] Values are reported as mean±S.E.M. Statistics were performed using a two-tail Student's t-test, and significance levels shown in the figures are *p<0.05 versus vehicle control group or **p<0.01 versus vehicle control group. […]
# hIDE V360R = biological target: T1, hIDE V360R (Homo sapiens, UniProt P14735, V360R); assay: Small molecule-enzyme mutant complementation study; assay type: biochemical; details: V360R vs hIDE WT, batch 3
# T1 construct: The reported N-His6-tagged human IDE42-1019 construct was introduced in the expression plasmid pTrcHis-A; made in house; host or cells: E. coli Rosetta 2 (DE3) pLysS
# T1 sequence (P14735 42-1019 V360R): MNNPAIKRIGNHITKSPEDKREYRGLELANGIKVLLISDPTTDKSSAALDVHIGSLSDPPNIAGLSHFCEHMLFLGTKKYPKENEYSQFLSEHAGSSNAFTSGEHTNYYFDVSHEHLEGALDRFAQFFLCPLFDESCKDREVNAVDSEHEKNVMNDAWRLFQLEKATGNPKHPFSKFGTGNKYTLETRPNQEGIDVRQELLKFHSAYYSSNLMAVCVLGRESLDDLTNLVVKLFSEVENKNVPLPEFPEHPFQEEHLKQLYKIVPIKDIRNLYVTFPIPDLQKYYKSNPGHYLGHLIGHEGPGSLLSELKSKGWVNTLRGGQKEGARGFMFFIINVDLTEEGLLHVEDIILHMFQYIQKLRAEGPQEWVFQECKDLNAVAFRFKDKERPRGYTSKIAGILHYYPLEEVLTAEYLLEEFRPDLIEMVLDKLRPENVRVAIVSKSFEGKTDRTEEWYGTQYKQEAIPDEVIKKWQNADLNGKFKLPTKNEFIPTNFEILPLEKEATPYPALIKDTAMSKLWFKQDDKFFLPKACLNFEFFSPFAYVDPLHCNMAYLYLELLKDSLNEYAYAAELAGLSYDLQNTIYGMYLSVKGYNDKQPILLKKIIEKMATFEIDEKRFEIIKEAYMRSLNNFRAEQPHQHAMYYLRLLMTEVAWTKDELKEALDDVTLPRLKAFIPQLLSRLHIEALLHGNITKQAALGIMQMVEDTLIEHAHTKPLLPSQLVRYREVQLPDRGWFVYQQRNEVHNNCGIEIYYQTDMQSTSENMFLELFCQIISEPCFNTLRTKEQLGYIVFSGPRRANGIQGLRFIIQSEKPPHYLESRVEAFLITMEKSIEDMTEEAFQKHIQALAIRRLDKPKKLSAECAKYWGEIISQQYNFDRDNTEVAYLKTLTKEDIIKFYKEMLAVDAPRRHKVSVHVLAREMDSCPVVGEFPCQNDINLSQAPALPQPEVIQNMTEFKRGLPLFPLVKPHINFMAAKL
# From the text: Protease assays with fluorogenic peptide substrates. […] All assay data points were obtained in duplicate.
# Site-directed mutagenesis, expression, and purification of human IDE. The reported N-His6-tagged human IDE42-1019 construct was introduced in the expression plasmid pTrcHis-A (Invitrogen) using primers for uracil-specific excision reactions (USER) by Taq (NEB) and Pfu polymerases (PfuTurbo CX®, Agilent). The IDE gene was amplified with the primers 5′-[…]-dU-[…] and 5′-[…] G-dU-[…] (underlined sequences represent overhangs, and italics highlight the PCR priming sequence). Similarly, the pTrcHis-A vector was amplified for USER cloning with the primers 5′-[…] TGA-dU-[…] CCC and 5′-[…]-dU-[…]. Mutant IDE constructs were generated by amplifying the full vector construct with USER cloning primers introducing a mutant overhang (Table 5).
# All PCR products were purified on microcentrifuge membrane columns (MinElute®, Qiagen) and quantified by UV absorbance (NanoDrop). Each fragment (0.2 pmol) was combined in a 10 μL reaction mixture containing 20 units DpnI (NEB), 0.75 units of USER mix (Endonuclease VIII and Uracil-DNA Glycosylase, NEB), 20 mM Tris-acetate, 50 mM potassium acetate, 10 mM magnesium acetate, 1 mM dithiothreitol at pH 7.9 (1× NEBuffer 4). The reactions were incubated at 37° C. for 45 min, followed by heating to 80° C. and slow cooling to 30° C. (0.2° C./s). The hybridized constructs were directly used for heat-shock transformation of chemically competent NEB turbo E. coli cells according to the manufacturer's instructions. Transformants were selected on carbenicillin LB agar, and isolated colonies were cultured overnight in 2 mL LB.
# The plasmid was extracted using a microcentrifuge membrane column kit (Miniprep®, Qiagen), and the sequence of genes and vector junctions were confirmed by Sanger sequencing (Table 6). The plasmid constructs were transformed by heat-shock into chemically-competent expression strain Rosetta 2 (DE3) pLysS E. coli cells (EMD Millipore), and selected on carbenicillin/chloramphenicol LB agar. Cells transformed with IDE pTrcHis A constructs were cultured overnight at 37° C. in 2 XYT media (31 g in 1 L) containing 100 μg/mL ampicillin and 34 μg/mL chloramphenicol. Expression of His6-tagged IDE proteins was induced when the culture measured OD600 ˜0.6 by addition of isopropyl-β-D-1-thiogalactopyranoside (IPTG) to 1 mM final concentration, incubated overnight at 37° C., followed by centrifugation at 10,000 g for 30 min at 4° C.
# Recombinant His6-tagged proteins were purified by Ni(II)-affinity chromatography (IMAC sepharose beads, GE Healthcare®) according to the manufacturer's instructions. The cell pellets were resuspended in pH 8.0 buffer containing 50 mM phosphate, 300 mM NaCl, 10 mM imidazole, 1% Triton X-100 and 1 mM tris(2-carboxyethyl)phosphine hydrochloride (TCEP), and were lysed by probe sonication for 4 min at 4° C., followed by clearing of cell debris by centrifugation at 10,000 g for 25 min at 4° C. The supernatant was incubated with Ni(II)-doped IMAC resin (2 mL) for 3 h at 4° C. The resin was washed twice with the cell resuspension/lysis buffer, and three times with pH 8.0 buffer containing 50 mM phosphate, 300 mM NaCl,50 mM imidazole and 1 mM TCEP. Elution was performed in 2 mL aliquots by raising the imidazole concentration to 250 mM and subsequently to 500 mM in the previous buffer. The fractions were combined and the buffer was exchanged to the recommended IDE buffer (R&D) using spin columns with 100 KDa molecular weight cut off membranes (Millipore). Protein yields were typically ˜10 μg/L, and >90% purity based on gel electrophoresis analysis (Coomassie stained).
smiles,measurement,setting,value
NCCCC[C@@H]1NC(=O)/C=C/C(=O)N[C@H](C(N)=O)CCCCNC(=O)[C@@H](Cc2ccc(C(=O)c3ccccc3)cc2)NC(=O)[C@H](CC2CCCCC2)NC1=O [Compound 6bK],basal blood glucose or hormone levels,lean mice,did not significantly alter
NC(=O)CCC1NC(=O)C=CC(=O)NC(C(N)=O)CCCCNC(=O)C(Cc2ccc(C(=O)c3ccccc3)cc2)NC(=O)C(CC2CCCCC2)NC1=O (centres unmarked) [Compound 6b],IC50 shift,hIDE V360R,1.4 fold
